Measurements published in article PMC8410669 (Neuropharmacology, 2021).

How the values were obtained:
δ-opioid receptor (DOR) = settings: ref Stanczyk et al., 2019; cited from earlier work
C57BL/6 mice = experiment: Naloxone-precipitated opioid withdrawal paradigm; type: in vivo, mouse; settings: morphine 10 mg/kg s.c. or oxycodone 3.5 mg/kg s.c. twice a day for 5 consecutive days
female C57Bl/6 mice = experiment: Respiratory and heart rate measurements; type: in vivo, mouse
MOR = settings: ref Kandasamy et al., 2021; cited from earlier work
[1] = ref Kandasamy et al., 2021; cited from earlier work
[2] = high dose 30 mg/kg s.c., compared with vehicle

SMILES: Cc1ccccc1COc1ccc(C2C3=C(CC(C)(C)CC3=O)OC3=C2C(=O)CC(C)(C)C3)cc1 [BMS-986187]
- G protein activation vs β-arrestin recruitment (δ-opioid receptor (DOR)): enhance G protein activation to a greater extent than β-arrestin recruitment

SMILES: COc1ccc2c3c1O[C@H]1C(=O)CC[C@@]4(O)[C@@H](C2)N(C)CC[C@]314 [oxycodone]
- naloxone-precipitated withdrawal syndrome of the opioid (C57BL/6 mice): mild withdrawal syndrome

SMILES: CN1CC[C@]23c4c5ccc(O)c4O[C@H]2[C@@H](O)C=C[C@H]3[C@H]1C5 [morphine]
- naloxone-precipitated withdrawal syndrome of the opioid (C57BL/6 mice): mild withdrawal syndrome
- breathing rate (respiratory depression) (female C57Bl/6 mice; [2]): caused significant respiratory depression
- heart rates (female C57Bl/6 mice; [2]): decrease in heart rates
- dose for respiratory depression relative to dose required for analgesia (female C57Bl/6 mice; mice): three to five times

SMILES: COc1ccc(C2SCCN2S(=O)(=O)c2ccc(Cl)cc2)cc1Br (centres unmarked) [BMS-986122]
- G protein activation vs β-arrestin recruitment (MOR): enhance G protein activation to a greater extent than β-arrestin recruitment
- antinociception and side effects in vivo [1]: produces antinociception with reduced side effects
